According to ChEMBL document CHEMBL5634158, “From garden to lab: C-3 chemical modifications of tomatidine unveil broad-spectrum ATP synthase inhibitors to combat bacterial resistance” (Eur J Med Chem, 2023):
Converted amounts (≈) assume the structure as drawn.

How the values were obtained:
[1] = tested on: Staphylococcus aureus; test: Antibacterial activity against Staphylococcus aureus ATCC 29213 assessed as fold decrease in MIC incubated for 20 hrs under aerobic condition by CLSI based broth microdilution method; type: functional
[2] = tested on: Escherichia coli; test: Antibacterial activity against Escherichia coli ATCC 25922 assessed as fold decrease in MIC for 20 hrs under aerobic condition by CLSI based broth microdilution method; type: functional
[3] = tested on: Escherichia coli; test: Antibacterial activity against Escherichia coli ATCC 25922 assessed as reduction in microbial growth incubated for 20 hrs under aerobic condition by CLSI based broth microdilution method; type: functional
[4] = tested on: Staphylococcus aureus; test: Antibacterial activity against Staphylococcus aureus ATCC 29213 assessed as reduction in microbial growth incubated for 20 hrs under aerobic condition by CLSI based broth microdilution method; type: functional
[5] = tested on: Escherichia coli; test: Selectivity ratio of MIC for Escherichia coli MC4100 to MIC for Escherichia coli MC4100 harbouring acrAB mutant; type: toxicity, organism-based; details: in vivo
[6] = Inhibition of Escherichia coli ATCC 25922 ATP synthase activity preincubated for 30 mins followed by NADH/ADP addition and measured after 60 mins by luciferin/luciferase luminescence assay
[7] = tested on: Escherichia coli; test: Antibacterial activity against Escherichia coli MC4100 harbouring acrAB mutant assessed as reduction in bacterial growth by CLSI based broth microdilution method; type: functional
[8] = tested on: Staphylococcus aureus; test: Antibacterial activity against Staphylococcus aureus ATCC 29213 hemB SCV assessed as reduction in microbial growth incubated for 20 hrs under aerobic condition by CLSI based broth microdilution method; type: functional
[9] = tested on: Escherichia coli; test: Antibacterial activity against Escherichia coli MC4100 assessed as reduction in bacterial growth by CLSI based broth microdilution method; type: functional
[10] = tested on: Escherichia coli; test: Antibacterial activity against Escherichia coli MC4100 harbouring lptD mutant assessed as reduction in bacterial growth by CLSI based broth microdilution method; type: functional
[11] = tested on: Staphylococcus aureus; test: Antibacterial activity against methicillin resistant Staphylococcus aureus ATCC BAA-41/USA-100 assessed as reduction in microbial growth incubated for 20 hrs under aerobic condition by CLSI based broth microdilution method; type: functional
[12] = tested on: Escherichia coli; test: Antibacterial activity against Escherichia coli producing extended spectrum beta-lactamase CTX-M-15 assessed as reduction in microbial growth incubated for 20 hrs under aerobic condition by CLSI based broth microdilution method; type: functional
[13] = Inhibition of mitochondrial ATP synthase in human HepG2 cells preincubated for 30 mins followed by NADH/ADP addition and measured after 60 mins by luminescence assay; type: cell-based
[14] = Inhibition of Staphylococcus aureus ATCC 29213 ATP synthase activity preincubated for 30 mins followed by NADH/ADP addition and measured after 60 mins by luciferin/luciferase luminescence assay
[15] = tested on: Escherichia coli; test: Antibacterial activity against NDM1-producing carbapenem-resistant Escherichia coli ATCC BAA-2471 assessed as reduction in microbial growth incubated for 20 hrs under aerobic condition by CLSI based broth microdilution method; type: functional
[16] = tested on: Escherichia coli; test: Antibacterial activity against Escherichia coli producing extended spectrum beta-lactamase KPC assessed as reduction in microbial growth incubated for 20 hrs under aerobic condition by CLSI based broth microdilution method; type: functional
[17] = tested on: Escherichia coli; test: Antibacterial activity against colistin resistant Escherichia coli harboring mcr-1 gene assessed as reduction in microbial growth incubated for 20 hrs under aerobic condition by CLSI based broth microdilution method; type: functional
[18] = tested on: Staphylococcus aureus; test: Antibacterial activity against methicillin resistant Staphylococcus aureus ATCC 700699/Mu50 assessed as reduction in microbial growth incubated for 20 hrs under aerobic condition by CLSI based broth microdilution method; type: functional
[19] = tested on: Escherichia coli; test: Antibacterial activity against antibiotic susceptible Escherichia coli producing extended spectrum beta-lactamase CTX-M-15 assessed as reduction in microbial growth incubated for 20 hrs under aerobic condition by CLSI based broth microdilution method; type: functional
[20] = tested on: Escherichia coli; test: Antibacterial activity against antibiotic resistant Escherichia coli producing extended spectrum beta-lactamase CTX-M-15 assessed as reduction in microbial growth incubated for 20 hrs under aerobic condition by CLSI based broth microdilution method; type: functional
[21] = tested on: Escherichia coli; test: Antibacterial activity against antibiotic susceptible Escherichia coli ATCC 25922 assessed as reduction in microbial growth incubated for 20 hrs under aerobic condition by CLSI based broth microdilution method; type: functional
[22] = tested on: Staphylococcus aureus; test: Antibacterial activity against antibiotic resistant Staphylococcus aureus ATCC 29213 hemB SCV assessed as reduction in microbial growth incubated for 20 hrs under aerobic condition by CLSI based broth microdilution method; type: functional
[23] = tested on: Escherichia coli; test: Antibacterial activity against NDM1-producing carbapenem/antibiotic resistant Escherichia coli ATCC BAA-2471 assessed as reduction in microbial growth incubated for 20 hrs under aerobic condition by CLSI based broth microdilution method; type: functional
[24] = tested on: Escherichia coli; test: Antibacterial activity against antibiotic/colistin resistant Escherichia coli harboring mcr-1 gene assessed as reduction in microbial growth incubated for 20 hrs under aerobic condition by CLSI based broth microdilution method; type: functional
[25] = tested on: Staphylococcus aureus; test: Antibacterial activity against antibiotic resistant methicillin resistant Staphylococcus aureus ATCC BAA-41/USA-100 assessed as reduction in microbial growth incubated for 20 hrs under aerobic condition by CLSI based broth microdilution method; type: functional
[26] = tested on: Staphylococcus aureus; test: Antibacterial activity against antibiotic resitant/methicillin resistant Staphylococcus aureus ATCC 700699/Mu50 assessed as reduction in microbial growth incubated for 20 hrs under aerobic condition by CLSI based broth microdilution method; type: functional
[27] = tested on: Staphylococcus aureus; test: Antibacterial activity against antibiotic susceptible Staphylococcus aureus ATCC 29213 assessed as reduction in microbial growth incubated for 20 hrs under aerobic condition by CLSI based broth microdilution method; type: functional
[28] = tested on: Escherichia coli; test: Antibacterial activity against antibiotic susceptible Escherichia coli producing extended spectrum beta-lactamase KPC assessed as reduction in microbial growth incubated for 20 hrs under aerobic condition by CLSI based broth microdilution method; type: functional
[29] = tested on: Staphylococcus aureus; test: Antibacterial activity against wild type Staphylococcus aureus ATCC 29213 assessed as reduction in microbial growth by CLSI based broth microdilution method; type: functional
[30] = tested on: Staphylococcus aureus; test: Antibacterial activity against Staphylococcus aureus ATCC 29213 SCV assessed as reduction in microbial growth by CLSI based broth microdilution method; type: functional
[31] = tested on: Staphylococcus aureus; test: microbe, parasite or virus in culture; details: ATCC 700699/Mu50, 20 h
Description: Antibacterial activity against antibiotic intermediately resitant/methicillin resistant Staphylococcus aureus ATCC 700699/Mu50 assessed as reduction in microbial growth incubated for 20 hrs under aerobic condition by CLSI based broth microdilution method

## C[C@H]1CC[C@]2(NC1)O[C@H]1C[C@H]3[C@@H]4CC[C@H]5CC(NC[C@@H]6Cc7ccccc7CN6)CC[C@]5(C)[C@H]4CC[C@]3(C)[C@H]1[C@@H]2C (mixture of isomers)
[1]
  fold change (FC): 2
[2]
  fold change (FC): 2
[3]
  MIC: > 128 µg/mL
[4]
  MIC: 16 µg/mL

## C[C@H]1CC[C@]2(NC1)O[C@H]1C[C@H]3[C@@H]4CC[C@H]5CC(NC[C@@H](N)Cc6ccc(O)cc6)CC[C@]5(C)[C@H]4CC[C@]3(C)[C@H]1[C@@H]2C (mixture of isomers)
[5]
  Selectivity ratio: > 8
[6]
  IC50: 1600 nM
[3]
  MIC: 64 µg/mL
[4]
  MIC: 8 µg/mL
[7]
  MIC: 16 µg/mL
[8]
  MIC: 0.25 µg/mL
[9]
  MIC: > 128 µg/mL
[10]
  MIC: 8 µg/mL

## C[C@H]1CC[C@]2(NC1)O[C@H]1C[C@H]3[C@@H]4CC[C@H]5CC(NC[C@@H](N)Cc6ccc(Cl)c(Cl)c6)CC[C@]5(C)[C@H]4CC[C@]3(C)[C@H]1[C@@H]2C (mixture of isomers)
[11]
  MIC: 2 µg/mL
[12]
  MIC: 4 µg/mL
[13]
  IC50: 13900 nM
[14]
  IC50: 830 nM
[6]
  IC50: 1950 nM
[3]
  MIC: 4 µg/mL
[15]
  MIC: 8 µg/mL
[4]
  MIC: 1 µg/mL
[16]
  MIC: 8 µg/mL
[7]
  MIC: 4 µg/mL
[17]
  MIC: 8 µg/mL
[8]
  MIC: 0.5 µg/mL
[9]
  MIC: 8 µg/mL
[10]
  MIC: 2 µg/mL
[18]
  MIC: 1 µg/mL

## NC[C@H]1O[C@H](O[C@H]2[C@H](O)[C@@H](O[C@H]3O[C@H](CO)[C@@H](O)[C@H](N)[C@H]3O)[C@H](N)C[C@@H]2N)[C@H](N)C[C@@H]1O [TOBRAMYCIN]
[19]
  MIC: ≤ 0.03 µg/mL
[20]
  MIC: 64 µg/mL
[21]
  MIC: 0.24 µg/mL
[22]
  MIC: 16 µg/mL
[23]
  MIC: 64 µg/mL
[24]
  MIC: 32 µg/mL
[25]
  MIC: > 64 µg/mL
[26]
  MIC: > 64 µg/mL
[27]
  MIC: 0.5 µg/mL
[28]
  MIC: 0.5 µg/mL

## C[C@H]1CC[C@]2(NC1)O[C@H]1C[C@H]3[C@@H]4CC[C@H]5C[C@@H](O)CC[C@]5(C)[C@H]4CC[C@]3(C)[C@H]1[C@@H]2C [TOMATIDINE]
[29]
  MIC: > 64 µg/mL
[3]
  MIC: > 128 µg/mL
[4]
  MIC: > 64 µg/mL
[8]
  MIC: 0.06 µg/mL
[30]
  MIC: 0.06 µg/mL

## CN[C@H](CC(C)C)C(=O)N[C@H]1C(=O)N[C@@H](CC(N)=O)C(=O)N[C@H]2C(=O)N[C@H]3C(=O)N[C@H](C(=O)N[C@H](C(=O)O)c4cc(O)cc(O)c4-c4cc3ccc4O)[C@H](O)c3ccc(c(Cl)c3)Oc3cc2cc(c3O[C@@H]2O[C@H](CO)[C@@H](O)[C@H](O)[C@H]2O[C@H]2C[C@](C)(N)[C@H](O)[C@H](C)O2)Oc2ccc(cc2Cl)[C@H]1O [VANCOMYCIN]
[31]
  MIC: 8 µg/mL (≈ 5.52 µM)
